The results in this text go back to article PMC9890698 (BMC Biology, 2023).

For test [1], the target named is T1, Human P2Y1-R (Homo sapiens, UniProt P47900).
T1 construct: expressed in transfected cells; host or cells: HEK293T/17
The test can be described thus: Gαq protein activation BRET2 assay (Gαq-RLuc8/GFP2-Gγ2/Gβ1) in HEK293T cells expressing P2Y1-R. It is filed as cell-based. The note with it: Fig. S2a, P2Y1-R, individual replicates. The source says:
(§1) As previously described, using a BRET^2 (bioluminescence resonance energy transfer)-based assay, we directly monitored the basal Gαq protein activation by measuring the interaction between Gαq and Gγ2 subunits of the Gαqβ1γ2 heterotrimer complex. Indeed, this assay is based on the non-radiative transfer between the Renilla reniformis luciferase (RLuc8) energy donor fused to the Gαq protein subunit and the fluorescent GFP2 energy acceptor fused to Gγ2 protein subunit (Fig. 1a). […] By contrast, ligand-independent constitutive receptor activation or agonist-induced receptor activation will promote Gαq/Gγ2 subunit dissociation, thereby leading to a decrease of the basal BRET signal (Fig. 1a). […] To preclude any P2Y1-R activation by a passive release of ADP by HEK293T cells, we performed similar experiments in the presence of high concentration of apyrase (0.2U/mL) to degrade any trace of ADP in the medium (Additional File 2: Fig. S2a). Under these conditions, P2Y1-R expression still induces a marked and significant decrease of the basal BRET signal compared to control cells (pcDNA3.1), thereby supporting a P2Y1-R-dependent constitutive activation of Gαq protein. […] Of note, because P2Y1-R and AT1-R were respectively Myc- and HA-tagged and were thus detected using different primary antibodies, their expression at the cell surface cannot be compared between each other’s.
(§2) Human P2Y1-R (NCBI Reference Sequence: NM_002563.2) and P2Y12-R (NCBI Reference Sequence: NM_022788.3) were fused to double Myc epitope and rat AT1-R (NCBI Reference Sequence: NM_030985.4) to HA tag in N-terminus extracellular region. Alternatively, receptors were also fused to Venus tag in C-terminus intracellular region. Plasmids encoding Gαq-RLuc8, GFP2-Gγ2 and untagged Gβ1 were previously described. ADP was purchased from Sigma-Aldrich/Merck (Darmstadt, Germany). […] The Gq inhibitor (FR900359) was kindly supplied by Evi Kostenis (University of Bonn. Germany).
G protein activation and β-arrestin 2 recruitment were performed as previously described. Briefly, vectors encoding receptors, Gαq-RLuc8, GFP2-Gγ2, Gβ1, or β-arrestin 2 were transiently cotransfected into HEK293T/17 cells as indicated in the figure legends. Forty-eight hours after transfection, cells were washed and resuspended in PBS containing 0.1% (w/v) glucose at room temperature and then distributed (80 μg proteins/well) in a 96-well microplate (PerkinElmer). For G protein activation experiments (BRET^2), cells were incubated in the absence (basal BRET signal) or in the presence of ligand for 1 minute. BRET signal between RLuc8 and GFP2 was measured after addition of the luciferase substrate coelenterazine 400a (5 μM). For β-arrestin 2 recruitment (BRET^1), cells were stimulated with ligands for 5 or 15 min. BRET signal was recorded after incubation with coelenterazine h (5 μM) for 8 min. For kinetics studies, BRET signal between RLuc and Venus was recorded at 20-s intervals at basal state for the 2 first minutes and then for 5 min after ligand injection. For saturation curves (BRET^1), the expression level of Venus- or RLuc-tagged protein was determined by direct measurement of total fluorescence and luminescence respectively. Total fluorescence was first measured with an excitation filter at 485 nm and an emission filter at 520 nm. Then, the same sample was incubated for 8 minutes with 5 μM coelenterazine h and the total luminescence was measured. BRET^2 and BRET^1 readings were collected using a modified Infinite F500 (Tecan Group Ltd). The BRET^2 signal was calculated by the ratio of emission of GFP2 (510–540 nm) to RLuc8 (370–450 nm) and the BRET^1 signal by the ratio of emission of Venus (520–570 nm) to RLuc (370–480 nm). […]
(Bioluminescence resonance energy transfer reports proximity on the nanometre scale.)

Test [2] deals with Gαq protein in HEK293T cells (pcDNA3.1). The test can be described thus: Gαq protein activation BRET2 assay in control HEK293T cells without receptor (pcDNA3.1 / 0 μg). Format: cell-based, Human. The note with it: Fig. S2a, pcDNA3.1, individual replicates.
Source text: as §1
G protein activation and β-arrestin 2 recruitment were performed as previously described. […] BRET signal between RLuc8 and GFP2 was measured after addition of the luciferase substrate coelenterazine 400a (5 μM). […] BRET signal was recorded after incubation with coelenterazine h (5 μM) for 8 min. For kinetics studies, BRET signal between RLuc and Venus was recorded at 20-s intervals at basal state for the 2 first minutes and then for 5 min after ligand injection. For saturation curves (BRET^1), the expression level of Venus- or RLuc-tagged protein was determined by direct measurement of total fluorescence and luminescence respectively. Total fluorescence was first measured with an excitation filter at 485 nm and an emission filter at 520 nm. Then, the same sample was incubated for 8 minutes with 5 μM coelenterazine h and the total luminescence was measured. BRET^2 and BRET^1 readings were collected using a modified Infinite F500 (Tecan Group Ltd). The BRET^2 signal was calculated by the ratio of emission of GFP2 (510–540 nm) to RLuc8 (370–450 nm) and the BRET^1 signal by the ratio of emission of Venus (520–570 nm) to RLuc (370–480 nm). Sometimes, results are expressed as the Net BRET computed by deducting the BRET background signal (obtained in the presence of the energy donor alone) from the BRET signal (acquired from cells expressing both the energy donor and acceptor).

Test [3] deals with T2, Human P2Y12-R (Homo sapiens, UniProt Q9H244).
T2 construct: expressed in transfected cells; host or cells: HEK293T/17
T2 sequence (Q9H244 whole entry): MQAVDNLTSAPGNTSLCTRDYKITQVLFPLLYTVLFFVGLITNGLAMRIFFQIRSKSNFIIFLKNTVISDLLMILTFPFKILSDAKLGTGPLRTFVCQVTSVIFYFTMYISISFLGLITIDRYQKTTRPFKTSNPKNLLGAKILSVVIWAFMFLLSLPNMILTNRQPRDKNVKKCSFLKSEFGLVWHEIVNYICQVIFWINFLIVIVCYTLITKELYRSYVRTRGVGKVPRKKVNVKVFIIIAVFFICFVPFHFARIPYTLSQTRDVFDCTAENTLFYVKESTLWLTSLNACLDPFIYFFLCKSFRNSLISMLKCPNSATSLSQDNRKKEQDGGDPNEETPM
Nature of the test: β-arrestin 2 recruitment BRET1 assay (β-arrestin 2-RLuc / P2Y12-R-Venus) in HEK293T cells. As to conditions: Fig. S5; P2Y12-R; (+) apyrase; individual replicates. Format: cell-based. The source says: We assessed β-arrestin 2 recruitment to the receptor using BRET^1 assay. The assay measures the interaction between β-arrestin 2 fused to the Renilla reniformis luciferase (RLuc) energy donor and the receptor fused to fluorescent Venus energy acceptor (Fig. 3a). The recruitment of cytosolic β-arrestin 2 to the receptor at the plasma membrane in the presence of an agonist will promote a significant increase of the BRET signal compared to the basal state, reflecting the close proximity between the β-arrestin 2 energy donor and the receptor energy acceptor [22]. […]
G protein activation and β-arrestin 2 recruitment were performed as previously described. […] BRET signal between RLuc8 and GFP2 was measured after addition of the luciferase substrate coelenterazine 400a (5 μM). […] BRET signal was recorded after incubation with coelenterazine h (5 μM) for 8 min. For kinetics studies, BRET signal between RLuc and Venus was recorded at 20-s intervals at basal state for the 2 first minutes and then for 5 min after ligand injection. For saturation curves (BRET^1), the expression level of Venus- or RLuc-tagged protein was determined by direct measurement of total fluorescence and luminescence respectively. Total fluorescence was first measured with an excitation filter at 485 nm and an emission filter at 520 nm. […] BRET^2 and BRET^1 readings were collected using a modified Infinite F500 (Tecan Group Ltd). […]

Test [4] has as its system HEK293T cells (pcDNA3.1). Nature of the test: β-arrestin 2 BRET1 basal signal in control HEK293T cells without receptor (pcDNA3.1). It is filed as cell-based, Human. As to conditions: Fig. S5, (+) apyrase, individual replicates. From the text:
Supplement 12915_2023_1528_MOESM8_ESM.xlsx, sheet "Fig. S5" | column: (+) apyrase

The target in test [5] is T1, Human P2Y1-R. The test can be described thus: β-arrestin 2 recruitment BRET1 assay (β-arrestin 2-RLuc / P2Y1-R-Venus) in HEK293T cells. Format: cell-based. As to conditions: Fig. S5; P2Y1-R; (+) apyrase; individual replicates.
Source text: We assessed β-arrestin 2 recruitment to the receptor using BRET^1 assay. The assay measures the interaction between β-arrestin 2 fused to the Renilla reniformis luciferase (RLuc) energy donor and the receptor fused to fluorescent Venus energy acceptor (Fig. 3a). The recruitment of cytosolic β-arrestin 2 to the receptor at the plasma membrane in the presence of an agonist will promote a significant increase of the BRET signal compared to the basal state, reflecting the close proximity between the β-arrestin 2 energy donor and the receptor energy acceptor [22].
as §2
G protein activation and β-arrestin 2 recruitment were performed as previously described. Briefly, vectors encoding receptors, Gαq-RLuc8, GFP2-Gγ2, Gβ1, or β-arrestin 2 were transiently cotransfected into HEK293T/17 cells as indicated in the figure legends. Forty-eight hours after transfection, cells were washed and resuspended in PBS containing 0.1% (w/v) glucose at room temperature and then distributed (80 μg proteins/well) in a 96-well microplate (PerkinElmer). For G protein activation experiments (BRET^2), cells were incubated in the absence (basal BRET signal) or in the presence of ligand for 1 minute. BRET signal between RLuc8 and GFP2 was measured after addition of the luciferase substrate coelenterazine 400a (5 μM). For β-arrestin 2 recruitment (BRET^1), cells were stimulated with ligands for 5 or 15 min. BRET signal was recorded after incubation with coelenterazine h (5 μM) for 8 min. For kinetics studies, BRET signal between RLuc and Venus was recorded at 20-s intervals at basal state for the 2 first minutes and then for 5 min after ligand injection. For saturation curves (BRET^1), the expression level of Venus- or RLuc-tagged protein was determined by direct measurement of total fluorescence and luminescence respectively. Total fluorescence was first measured with an excitation filter at 485 nm and an emission filter at 520 nm. Then, the same sample was incubated for 8 minutes with 5 μM coelenterazine h and the total luminescence was measured. BRET^2 and BRET^1 readings were collected using a modified Infinite F500 (Tecan Group Ltd). The BRET^2 signal was calculated by the ratio of emission of GFP2 (510–540 nm) to RLuc8 (370–450 nm) and the BRET^1 signal by the ratio of emission of Venus (520–570 nm) to RLuc (370–480 nm). Sometimes, results are expressed as the Net BRET computed by deducting the BRET background signal (obtained in the presence of the energy donor alone) from the BRET signal (acquired from cells expressing both the energy donor and acceptor).
On the technique in general: Arrestin recruitment assays detect the binding of arrestin to an activated receptor.

Several values for one entry are separate records, joined by “and”; a condition that tells them apart may be missing. Identical values can stand only once.

T1 sequence (P47900 whole entry): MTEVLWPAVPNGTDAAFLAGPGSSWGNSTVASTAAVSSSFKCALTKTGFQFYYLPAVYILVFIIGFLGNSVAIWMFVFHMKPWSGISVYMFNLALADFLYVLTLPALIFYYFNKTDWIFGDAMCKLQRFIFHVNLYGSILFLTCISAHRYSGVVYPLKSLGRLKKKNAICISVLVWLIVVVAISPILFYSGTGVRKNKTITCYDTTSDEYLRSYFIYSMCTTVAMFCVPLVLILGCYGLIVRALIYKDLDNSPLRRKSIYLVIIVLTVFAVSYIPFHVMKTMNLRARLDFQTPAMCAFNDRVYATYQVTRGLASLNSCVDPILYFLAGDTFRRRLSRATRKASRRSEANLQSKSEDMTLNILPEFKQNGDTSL

With apyrase, the “Basal BRET signal” value in test [1] ((+) apyrase 1 min) is 0.9128 and 0.7477 and 0.6192 and 0.8378; in test [1] ((+) apyrase 5 min) it was 0.6209 and 0.8174 and 0.9018 and 0.7551; in test [1] ((+) apyrase 10 min), 0.6295 and 0.8302 and 0.9025 and 0.7259; in test [2] ((+) apyrase 1 min) it was 2.035 and 1.852 and 1.218 and 1.795; in test [2] ((+) apyrase 5 min), 1.227 and 1.746 and 2.0243 and 1.801; in test [2] ((+) apyrase 10 min) it was 1.204 and 1.749 and 1.987 and 1.796. Besides, the “Basal BRET signal” value in test [3] was 0.9157 and 0.9699 and 0.8998 and 0.9124; in test [4], 0.8767 and 0.9382 and 0.883 and 0.8696; in test [5], 0.9766 and 1.039 and 0.9705 and 1.011.
